Target: T1, N-terminal His6-tagged recombinant full-length human Lck (Homo sapiens, UniProt P06239)
T1 construct: N-terminal His6-tagged recombinant full-length human Lck; His6 (N); purchased Millipore
Assay: Lck IMAP assay
Assay type: biochemical
Conditions: ATP 6 μM (KM,ATP), enzyme pre-incubated with compounds for 60 minutes, values given as bins
Source text: Inhibition of kinase activity can be measured using the Immobilized Metal Assay for Phosphochemicals (IMAP) assay. IMAP is a homogeneous fluorescence polarization (FP) assay based on affinity capture of phosphorylated peptide substrates. IMAP uses fluorescein-labeled peptide substrates that, upon phosphorylation by a protein kinase, bind to so-called IMAP nanoparticles, which are derivatized with trivalent metal complexes. Binding causes a change in the rate of the molecular motion of the peptide, and results in an increase in the FP value observed for the fluorescein label attached to the substrate peptide (Gaudet et al. A homogeneous fluorescence polarization assay adaptable for a range of protein serine/threonine and tyrosine kinases. J. Biomol. Screen (2003) 8, 164-175).
Enzyme used was N-terminal His6-tagged recombinant full-length human Lck from Millipore. Phosphorylation substrate was a fluorescein-labeled peptide (5FAM-KVEKIGEGTYGVV—NH2) derived from p34cdc2 from Molecular Devices. Enzymes, substrate and ATP were diluted in Kinase Reaction buffer (10 mM Tris-HCl, 10 mM MgCl2, 0.01% Tween-20, 0.05% NaN3 pH 7.2, 1 mM DTT (dithiotreitol). The final volume at the kinase reaction step of the assay in the 384-well plate was 20 μl. Final amount of enzyme in the reaction was 0.1 U/ml. Enzyme was pre-incubated with compounds diluted in 1% DMSO (dimethylsulfoxide) for 60 minutes at room temperature in the dark. Subsequently, peptide substrate to a final concentration of 100 nM, and ATP to a final concentration of 6 μM were added and the mix was incubated for 120 minutes at room temperature in the dark. IMAP progressive binding buffer (75% 1× buffer A, 25% 1× buffer B with 1:600 Progressive Binding Reagent; Molecular Devices) was added, followed by an incubation step of 60 minutes at room temperature in the dark. Finally, the FP signal was read on an Envision Multilabel reader (Perkin Elmer).
All biochemical assays were run at KM,ATP of the enzyme using non-saturated conditions, meaning that during the incubation time it was assured that the signal increase was linear with time. For all biochemical assays a reference standard was used on each plate.
Ten point serial dilutions using a √10 dilution factor were used for dose response testing of compounds. Starting concentration was 10^-6M for Lck IMAP assays. Dose-response curves were run as two experiments on duplicate plates (N=1; n=2). All data was normalized to percentage effect based on maximum (Max) and minimum (Min) control values. On every 384 assay plate 16 wells were used as minimum wells (wells with ATP, 0% effect) and 16 wells were used as maximum wells (wells without ATP, 100% effect). 16 wells were used for measuring the background signal, obtained from a kinase reaction containing all constituents except the labeled peptide substrate. Percentage effect was plotted against log dilution concentration of compound to obtain sigmoid dose response curves. pIC50 values were calculated using ActivityBase.

T1 sequence (P06239 whole entry): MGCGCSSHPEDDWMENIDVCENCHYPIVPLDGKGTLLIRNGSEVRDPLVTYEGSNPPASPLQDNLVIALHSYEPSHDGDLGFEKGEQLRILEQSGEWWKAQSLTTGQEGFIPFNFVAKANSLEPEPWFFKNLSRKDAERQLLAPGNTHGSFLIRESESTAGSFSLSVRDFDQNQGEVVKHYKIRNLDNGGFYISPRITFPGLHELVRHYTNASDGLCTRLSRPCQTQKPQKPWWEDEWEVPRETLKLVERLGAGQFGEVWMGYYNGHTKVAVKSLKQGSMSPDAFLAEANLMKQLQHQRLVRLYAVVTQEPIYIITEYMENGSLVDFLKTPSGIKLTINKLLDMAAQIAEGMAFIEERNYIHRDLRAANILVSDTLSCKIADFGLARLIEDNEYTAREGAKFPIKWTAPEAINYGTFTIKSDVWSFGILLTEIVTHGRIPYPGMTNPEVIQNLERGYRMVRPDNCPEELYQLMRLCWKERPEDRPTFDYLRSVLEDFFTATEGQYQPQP

Row | Structure (SMILES) | IC50
1 | CCC[C@H](C)OC(=O)Nc1ccc(-c2nc([C@H]3CC[C@H](N(C)CCOC)CC3)n3ccnc(C)c23)cc1OC [Example 26a, (S)-pentan-2-yl 2-methoxy-4-(3-((trans)-4-((2-methoxyethyl)(methyl)amino)cyclohexyl)-8-methylimidazo[1,5-a]pyrazin-1-yl)phenylcarbamate] | ≤ 10 nM
2 | COc1cc(-c2nc([C@H]3CC[C@H](N(C)C)CC3)n3ccnc(C)c23)ccc1NC(=O)c1cc2c(OC)cccc2n1C [Example 26b, N-(4-(3-((trans)-4-(dimethylamino)cyclohexyl)-8-methylimidazo[1,5-a]pyrazin-1-yl)-2-methoxyphenyl)-4-methoxy-1-methyl-1H-indole-2-carboxamide] | ≤ 10 nM
3 | COCCN(C)[C@H]1CC[C@@H](c2nc(-c3ccc(NC(=O)c4cc5c(OC)cccc5n4C)c(OC)c3)c3c(C)nccn32)CC1 [Example 26c, 4-methoxy-N-(2-methoxy-4-(3-((cis)-4-((2-methoxyethyl)(methyl)amino)cyclo-hexyl)-8-methylimidazo[1,5-a]pyrazin-1-yl)phenyl)-1-methyl-1H-indole-2-carboxamide] | ≤ 10 nM
4 | COc1cc(-c2nc([C@H]3CC[C@@H](N(C)C)CC3)n3ccnc(C)c23)ccc1NC(=O)c1cc2c(OC)cccc2n1C [Example 26e, N-(4-(3-((cis)-4-(dimethylamino)cyclohexyl)-8-methylimidazo[1,5-a]pyrazin-1-yl)-2-methoxyphenyl)-4-methoxy-1-methyl-1H-indole-2-carboxamide] | ≤ 10 nM
5 | CCC[C@H](C)OC(=O)Nc1ccc(-c2nc([C@H]3CC[C@@H](N4CC(F)(F)C4)CC3)n3ccnc(C)c23)cc1OC [Example 26g, (S)-pentan-2-yl 4-(3-((cis)-4-(3,3-difluoroazetidin-1-yl)cyclohexyl)-8-methylimidazo[1,5-a]pyrazin-1-yl)-2-methoxyphenylcarbamate] | ≤ 10 nM
6 | CCC[C@H](C)OC(=O)Nc1ccc(-c2nc([C@H]3CC[C@H](N(CCOC)C(C)=O)CC3)n3ccnc(C)c23)cc1OC [Example 29, (S)-Pentan-2-yl 2-methoxy-4-(3-((trans)-4-(N-(2-methoxyethyl)acetamido)cyclohexyl)-8-methylimidazo[1,5-a]pyrazin-1-yl)phenylcarbamate] | ≤ 10 nM
7 | COc1cc(-c2nc(C3CCN(C4CCOCC4)CC3)n3ccnc(C)c23)ccc1NC(=O)c1cc2c(OC)cccc2n1C [Example 30, 4-Methoxy-N-(2-methoxy-4-(8-methyl-3-(1-(tetrahydro-2H-pyran-4-yl)piperidin-4-yl)imidazo[1,5-a]pyrazin-1-yl)phenyl)-1-methyl-1H-indole-2-carboxamide] | ≤ 10 nM
8 | COc1cc(-c2nc(N3CCN(C4CCN(C(C)=O)CC4)CC3)n3ccnc(C)c23)ccc1NC(=O)c1cc2c(OC)cccc2n1C [Example 32, N-(4-(3-(4-(1-Acetylpiperidin-4-yl)piperazin-1-yl)-8-methylimidazo[1,5-a]pyrazin-1-yl)-2-methoxyphenyl)-4-methoxy-1-methyl-1H-indole-2-carboxamide] | ≤ 10 nM
9 | COc1cc(-c2nc([C@H]3CC[C@H](N4CCN(C)CC4)CC3)n3ccnc(C)c23)ccc1NC(=O)c1cc2ccccc2n1C [Example 33b, N-(2-methoxy-4-(8-methyl-3-((trans)-4-(4-methylpiperazin-1-yl)cyclohexyl)imidazo[1,5-a]pyrazin-1-yl)phenyl)-1-methyl-1H-indole-2-carboxamide 2,2,2-trifluoroacetate] | ≤ 10 nM
10 | CCC[C@H](C)OC(=O)Nc1ccc(-c2nc([C@H]3CC[C@H](N4CCN(C(C)=O)CC4)CC3)n3ccnc(C)c23)cc1OC [Example 33d, (S)-pentan-2-yl 4-(3-((trans)-4-(4-acetylpiperazin-1-yl)cyclohexyl)-8-methylimidazo[1,5-a]pyrazin-1-yl)-2-methoxyphenylcarbamate] | ≤ 10 nM

Further lines, results first:

Row | IC50 | Structure (SMILES)
11 | ≤ 10 nM | COc1cc(-c2nc(N3CCN(C)CC3)n3ccnc(C)c23)ccc1NC(=O)c1cc2ccccc2n1C [Example 23, N-(2-methoxy-4-(8-methyl-3-(4-methylpiperazin-1-yl)imidazo[1,5-a]pyrazin-1-yl)phenyl)-1-methyl-1H-indole-2-carboxamide]
12 | ≤ 10 nM | COc1cc(-c2nc(N3CCOCC3)n3ccnc(C)c23)ccc1NC(=O)c1cc2ccccc2n1C [Example 24, N-(2-methoxy-4-(8-methyl-3-(morholin-4-yl)imidazo[1,5-a]pyrazin-1-yl)phenyl)-1-methyl-1H-indole-2-carboxamide]
13 | 10 to 100 nM | COc1cc(-c2nc(N3CCC(N4CCOCC4)CC3)n3ccnc(C)c23)ccc1NC(=O)OC(C)C [Example 25, Isopropyl 2-methoxy-4-(8-methyl-3-(4-morpholinopiperidin-1-yl)imidazo[1,5-a]pyrazin-1-yl)phenylcarbamate]
14 | ≤ 10 nM | COc1cc(-c2nc([C@H]3CC[C@@H](N4CCOCC4)CC3)n3ccnc(C)c23)ccc1NC(=O)c1cc2c(OC)cccc2n1C [Example 26d, 4-methoxy-N-(2-methoxy-4-(8-methyl-3-((cis)-4-morpholinocyclohexyl)imidazo[1,5-a]pyrazin-1-yl)phenyl)-1-methyl-1H-indole-2-carboxamide]
15 | ≤ 10 nM | CCC[C@H](C)OC(=O)Nc1ccc(-c2nc([C@H]3CC[C@@H](N4CCN(C(C)=O)CC4)CC3)n3ccnc(C)c23)cc1OC [Example 26f, (S)-pentan-2-yl 4-(3-((cis)-4-(4-acetylpiperazin-1-yl)cyclohexyl)-8-methylimidazo[1,5-a]pyrazin-1-yl)-2-methoxyphenylcarbamate]
16 | ≤ 10 nM | CCC[C@H](C)OC(=O)Nc1ccc(-c2nc([C@H]3C[C@H](N4CCN(C)CC4)C3)n3ccnc(C)c23)cc1OC [Example 27, (S)-Pentan-2-yl 2-methoxy-4-(8-methyl-3-((1r,3r)-3-(4-methylpiperazin-1-yl)cyclobutyl)imidazo[1,5-a]pyrazin-1-yl)phenylcarbamate]
17 | ≤ 10 nM | CCC[C@H](C)OC(=O)Nc1ccc(-c2nc(N3CCN(C(C)=O)CC3)n3ccnc(C)c23)cc1OC [Example 31, (S)-Pentan-2-yl 4-(3-(4-acetylpiperazin-1-yl)-8-methylimidazo[1,5-a]pyrazin-1-yl)-2-methoxyphenylcarbamate]
18 | ≤ 10 nM | CCC[C@H](C)OC(=O)Nc1ccc(-c2nc([C@H]3CC[C@H](N4CCN(C)CC4)CC3)n3ccnc(C)c23)cc1OC [Example 33a, (S)-pentan-2-yl 2-methoxy-4-(8-methyl-3-((trans)-4-(4-methylpiperazin-1-yl)cyclohexyl)imidazo[1,5-a]pyrazin-1-yl)phenylcarbamate]
19 | ≤ 10 nM | COc1cc(-c2nc([C@H]3CC[C@H](N4CCN(C(C)=O)CC4)CC3)n3ccnc(C)c23)ccc1NC(=O)c1cc2ccccc2n1C [Example 33c, N-(4-(3-((trans)-4-(4-acetylpiperazin-1-yl)cyclohexyl)-8-methylimidazo[1,5-a]pyrazin-1-yl)-2-methoxyphenyl)-1-methyl-1H-indole-2-carboxamide]
20 | ≤ 10 nM | COc1cc(-c2nc([C@@H]3CCN(C(=O)CN(C)C)C3)n3ccnc(C)c23)ccc1NC(=O)c1cc2c(OC)cccc2n1C [Example 33e, (R)—N-(4-(3-(1-(2-(dimethylamino)acetyl)pyrrolidin-3-yl)-8-methylimidazo[1,5-a]pyrazin-1-yl)-2-methoxyphenyl)-4-methoxy-1-methyl-1H-indole-2-carboxamide]
21 | ≤ 10 nM | CCC[C@H](C)OC(=O)Nc1ccc(-c2nc([C@H]3CC[C@@H](N4CCN(C)CC4)CC3)n3ccnc(C)c23)cc1OC [Example 33f, (S)-pentan-2-yl 2-methoxy-4-(8-methyl-3-((cis)-4-(4-methylpiperazin-1-yl)cyclohexyl)imidazo[1,5-a]pyrazin-1-yl)phenylcarbamate]
22 | 10 to 100 nM | COc1cc(-c2nc(N3CCN(C(C)=O)CC3)n3ccnc(C)c23)ccc1NC(=O)c1cc2c(OC)cccc2n1C [Example 33g, N-(4-(3-(4-acetylpiperazin-1-yl)-8-methylimidazo[1,5-a]pyrazin-1-yl)-2-methoxyphenyl)-4-methoxy-1-methyl-1H-indole-2-carboxamide]
